Reference: publication PMC9946934, “Reconstitution of human pyroptotic cell death in Saccharomyces cerevisiae” (Scientific Reports, 2023)

How the values were obtained:
Type in all cases: cell-based, Saccharomyces cerevisiae
caspase-8 = target: T1, caspase-8 (Homo sapiens, UniProt Q14790); assay: growth rescue of S. cerevisiae expressing human caspase-8
T1 construct: gene CASP8
Description: growth rescue of S. cerevisiae expressing human caspase-8 on caspase-8 | higher concentrations of QVD were needed to restore the growth rate of yeast expressing caspase-8

caspase-1 = target: T2, caspase-1 (Homo sapiens, UniProt P29466); assay: growth rescue of S. cerevisiae expressing human caspase-1
T2 construct: gene CASP1
T2 sequence (P29466 1-404): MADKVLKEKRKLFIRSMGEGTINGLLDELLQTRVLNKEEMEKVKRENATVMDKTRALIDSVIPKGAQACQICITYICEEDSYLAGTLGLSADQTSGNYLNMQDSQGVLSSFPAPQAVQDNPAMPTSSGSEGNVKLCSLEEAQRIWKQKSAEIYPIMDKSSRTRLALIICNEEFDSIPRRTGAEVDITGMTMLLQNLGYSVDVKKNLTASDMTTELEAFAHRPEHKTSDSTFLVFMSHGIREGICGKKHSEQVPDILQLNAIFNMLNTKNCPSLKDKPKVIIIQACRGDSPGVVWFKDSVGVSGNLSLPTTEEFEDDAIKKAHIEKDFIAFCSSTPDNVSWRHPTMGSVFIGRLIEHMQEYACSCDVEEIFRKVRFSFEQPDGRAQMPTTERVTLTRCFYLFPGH

caspase-3 = target: T3, caspase-3 (Homo sapiens, UniProt P42574); assay: growth rescue of S. cerevisiae expressing active human caspase-3
T3 construct: gene CASP3; active caspase-3 fused to β-galactosidase (caspase-3–LacZ)
T3 sequence (P42574 29-175): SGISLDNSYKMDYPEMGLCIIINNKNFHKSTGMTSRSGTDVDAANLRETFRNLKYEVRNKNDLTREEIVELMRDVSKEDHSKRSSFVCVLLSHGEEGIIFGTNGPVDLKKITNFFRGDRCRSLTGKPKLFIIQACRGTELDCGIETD
T3 sequence (P42574 176-277): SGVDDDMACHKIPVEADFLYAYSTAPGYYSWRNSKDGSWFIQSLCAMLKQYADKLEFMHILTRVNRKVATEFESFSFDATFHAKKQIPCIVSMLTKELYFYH

T1 sequence (Q14790 whole entry): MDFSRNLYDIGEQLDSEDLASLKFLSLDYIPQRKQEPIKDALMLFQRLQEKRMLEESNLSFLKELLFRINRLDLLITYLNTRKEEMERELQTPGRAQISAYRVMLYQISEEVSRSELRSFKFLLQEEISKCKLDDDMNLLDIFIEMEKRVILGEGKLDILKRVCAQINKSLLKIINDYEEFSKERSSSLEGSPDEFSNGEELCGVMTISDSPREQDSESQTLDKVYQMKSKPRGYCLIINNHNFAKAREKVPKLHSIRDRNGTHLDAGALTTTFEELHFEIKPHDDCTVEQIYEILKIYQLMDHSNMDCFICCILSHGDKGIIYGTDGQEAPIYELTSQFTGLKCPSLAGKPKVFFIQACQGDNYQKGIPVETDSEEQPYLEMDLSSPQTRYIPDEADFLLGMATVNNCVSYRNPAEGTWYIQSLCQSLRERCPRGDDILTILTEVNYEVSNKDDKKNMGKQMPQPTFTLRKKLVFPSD

IC50 (caspase-8): 30 µM | IC50 (caspase-1): 21.4 µM | IC50 (caspase-3): 1.7 µM
Structure (SMILES): CC(C)[C@H](NC(=O)c1ccc2ccccc2n1)C(=O)N[C@@H](CC(=O)O)C(=O)COc1c(F)cccc1F [QVD, Q-VD-OPh]
